Results: patent US7408079B2, “Imaging agents and methods of imaging NAALADase or PSMA” (The Johns Hopkins University, priority 2002, dated 2008)

Assays:
GCP II [1] = biological target: T1, GCP II (Mus musculus, UniProt O35409); assay: Binding specificity: blocking of ^11C-MCG kidney uptake by pretreatment with blocker; format: in vivo, mice; conditions: for reduction in ^11C-MCG uptake: mouse kidney, pretreatment 5 minutes prior with unlabeled MCG (up to 1 mg/kg) or PMPA (1 mg/kg), sacrifice 30 minutes
T1 construct: from tissue; host or cells: kidney of live male CD-1 mice
Method: ANOVA, which was used in rodent radiotracer uptake studies, was performed with StatView SE Graphic software, version 1.03 (SAS Institute, Cary, N.C.). For the Students t test, p<0.01 was considered to indicate statistical significance.

LogP (hydrophilicity) = format: physicochemical
[2] = Metabolism studies of ^11C-MCG in mice (blood and kidney, HPLC); conditions: mice in vivo, n=2
Method: At different times after injection of ^11C-MCG into mice, blood and kidneys were collected to determine the rate of metabolism of the radiotracer. Heparinized blood (0.2-0.3 mL) was diluted to 0.9 mL with cold 0.9% saline and acidified to 0.5 N by the rapid addition of 0.1 mL of 5 N perchloric acid. Following 5 minutes on ice, the precipitate was removed by centrifugation to yield an acid-soluble supernatant that was analyzed by HPLC. Similarly, an acid extract of mouse kidney was obtained from an initial homogenate of two kidneys in 0.8 mL of cold water.
The acid extracts were loaded onto a 4.6×250 mm Prodigy ODS-3 column (Phenomenex) eluted with 10% acetonitrile in 50 mM sodium phosphate buffer pH 2.5 at a flow rate of 2 mL/min. Radioactivity was measured by a dual BGO flow detector and the chromatograph analyzed by Laura software (Bioscan, Washington, D.C.). ^11C-MCG eluted after 4.0 minutes with a minor, earlier eluting product at 2.5 minutes.

[3] = in vivo
Method: Male CD-1 mice (Charles River, Wilmington, Mass.) weighing between 20 and 25 g were used and received an injection of 3.7 MBq (100 μCi) of ^11C-MCG through the tail vein. That amounted to, at a maximum, 0.27 μg/kg. For kinetic studies, mice were killed by cervical dislocation at 5, 15, 30, 60, and 120 min after injection fo the radiotracer in 200 μL of saline vehicle. The brains were removed and placed on ice, and the cerebellum, olfactory bulb, hypothalamus, hippocampus, striatum, parietal cortex, brainstem, and thalamus were harvested. Kidneys, blood, fat, muscle, small intestine, and prostate were also harvested. The tissue samples were weighted, and their radioactivity content was determined in an automated γ counter (1282 Compugamma CS: Pharmacia/LKB Nuclear, Gaithersburg Md.). Aliquots of the injected tracer were counted along with the samples and served as standards for the calculation of percentage injected dose per gram of tissue (% ID/g). To assess binding specificity, groups of three mice each were pretreated with the high affinity GCP II inhibitor PMPA at does of 1, 10 and 100 mg/kg in 200 μL of saline vehicle 5 minutes prior to ^11C-MCG injection. In an additional binding specificity study, animals were pretreated similarly with unlabeled MCG standard at doses of 5, 50, 100, 500, and 1000 μg/kg before ^11C-MCG injection

GCP II [4] = assay: Baboon PET study of renal cortical uptake with tracer kinetic modeling; format: in vivo, baboon (Papio anubis)
Method: (§1) A dynamic PET study of the renal cortical uptake and clearance of ^11C-MCG was performed in an adult male baboon (Papio anubis; body weight, approximately 30 kg). Before each study, two intraveneous catheters and a single arterial catheter were placed for infusion of anesthesia, injection of radiotracer and sampling of arterial blood, respectively. The animal was initially anestitized intramuscurally with 8-10 mg/kg alfadolone and alfaxalone acetate (Saffan; Pitman-Moore, Middlesex, UK) and was intubated. Anesthesia was maintained throughout the study by a continuous intravenous infusion drip of 6-9 mg/kg/h of Saffan. The animal was secured to the PET bed using an individually fitted thermoplastic mask. Pulse, blood pressure, and oxygen saturation were monitored continuously during the studies. Blood oxygen saturation was always maintained above 85%. After the animal was positioned in the PET scanner, transmission scanning was performed with a 370 MBq (10 mCi) ^68Ga source to allow for attenuation correction. PET scanning was started immediately after intravenous injection of 370 MBq (10 mCi) of high-specific-acitivtiy ^11C-MCG (corresponding, at a maximum, to 0.02 μg/kg). Thirty-five simultaneous, contiguous (18 directed planes, 17 cross planes, z-axis 14.45 cm), sequential quantitative tomographic slices fo […] were obtained with a GE Advance PET tomograph (General Electric Medical Systems, Milwaukee, Wis.) in the high-resolution mode (4.25-5.00 mm ful width at half maximum within the slice) over a 90 minute period. The animal was positioned so that the renal cortex was in the filed of view. Approximately 30 arterial blood samples (for radioassay and protein binding) were obtained over 90 minutes. […]
A one-tissue, three parameter (K1=influx, k2 efflux, DV=distribution volume) model was applied to the TACs and to the metabolite-corrected renal uptake curves to describe tracer kinetics with DV (=K1/k2 in ml/ml) used as anindex of receptor density. The effect of blocking with PMPA was evaluated by changes in the Dva nd calculated as 100×(DVbaseline−DVblocker)/DVbaseline. […]

[5] = Metabolism of ^11C-MCG in baboon arterial plasma; format: in vivo, baboon (Papio anubis)
Method: as §1, with “PET scanning was started immediately after intravenous injection of 370 MBq (10 mCi) of high-specific-acitivtiy ^11C-MCG (corresponding, at a maximum, to 0.02 μg/kg).” left out, “period.” for “period. The animal was positioned so that the renal cortex was in the filed of view. Approximately 30 arterial blood samples (for radioassay and protein binding) were obtained over 90 minutes.”

T1 sequence (O35409 whole entry): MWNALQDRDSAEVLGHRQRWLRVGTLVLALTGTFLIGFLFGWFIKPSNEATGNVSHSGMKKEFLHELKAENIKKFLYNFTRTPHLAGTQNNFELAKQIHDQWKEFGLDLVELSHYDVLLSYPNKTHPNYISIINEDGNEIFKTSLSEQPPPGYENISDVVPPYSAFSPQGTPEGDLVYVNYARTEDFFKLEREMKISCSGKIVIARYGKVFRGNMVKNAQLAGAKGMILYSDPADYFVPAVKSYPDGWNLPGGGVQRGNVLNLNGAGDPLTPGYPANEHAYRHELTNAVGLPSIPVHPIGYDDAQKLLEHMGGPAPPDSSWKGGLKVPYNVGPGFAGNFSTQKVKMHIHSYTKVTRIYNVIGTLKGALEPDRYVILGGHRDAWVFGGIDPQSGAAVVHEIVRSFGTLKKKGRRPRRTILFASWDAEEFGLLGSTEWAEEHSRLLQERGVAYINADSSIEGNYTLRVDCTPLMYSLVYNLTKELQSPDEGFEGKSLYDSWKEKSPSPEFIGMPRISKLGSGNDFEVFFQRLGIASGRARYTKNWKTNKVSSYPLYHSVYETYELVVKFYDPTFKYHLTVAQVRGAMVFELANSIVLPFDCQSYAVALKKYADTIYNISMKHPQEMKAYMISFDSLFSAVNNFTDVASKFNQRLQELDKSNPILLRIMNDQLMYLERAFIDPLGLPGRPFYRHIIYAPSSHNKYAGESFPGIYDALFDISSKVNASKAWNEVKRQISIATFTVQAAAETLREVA

| Structure (SMILES) | decreasing ^11C-MCG uptake in mouse kidney (FIG. 1) (GCP II [1]; increasing concentration of unlabeled MCG blocker, up to) | reduction in ^11C-MCG uptake (GCP II [1]) | logP (LogP (hydrophilicity)) | metabolism in kidney ([2]; 30 minute time point) | metabolism in plasma ([2]; 30 minute time point) | metabolism in plasma ([2]; 60 minutes) | metabolism in kidney ([2]; at most over 5-60 minutes) | Kidney/blood ratio ([3]; male, CD-1, mouse, 30 min) | Prostate uptake ([3]; male, CD-1, mouse, 30 min) | kidney/muscle ratio ([3]; male, CD-1, mouse, 30 min) | uptake in brainstem ([3]; male, CD-1, mouse, 30 min) | uptake in cerebellum ([3]; male, CD-1, mouse, 30 min) | uptake in cortex ([3]; male, CD-1, mouse, 30 min) | uptake in hippocampus ([3]; male, CD-1, mouse, 30 min) | Brain uptake ([3]; mouse) | DV (distribution volume) (GCP II [4]; baboon renal cortex, after pretreatment with 3 mg/kg PMPA) | DV (distribution volume) (GCP II [4]; male, baboon (Papio anubis), in vivo) | peak metabolism ([5]; baseline, 90 minutes after injection) | peak metabolism ([5]; blocker (2 mg/kg PMPA) 10 minutes prior to tracer, 90 minutes post injection) | reduction in the DV of ^11C-MCG (GCP II [4]; baboon renal cortex, pretreatment with 3 mg/kg PMPA) |
| --- | --- | --- | --- | --- | --- | --- | --- | --- | --- | --- | --- | --- | --- | --- | --- | --- | --- | --- | --- | --- |
| CSCC(NC(=O)NC(CCC(=O)O)C(=O)O)C(=O)O (stereo not drawn) [MCG] | approximately seven fold | approximately sixfold | – | – | – | – | – | – | – | – | – | – | – | – | – | – | – | – | – | – |
| [11CH3]SC[C@H](NC(=O)N[C@@H](CCC(=O)O)C(=O)O)C(=O)O [^11C-MCG, 2-[3-(1-Carboxy-2-^11C-methylsulfanyl-ethyl)-ureido]-pentanedioic acid] | – | – | -0.235 | 2.0% | 3.5% | at most 9.2% | ≤ 10.4% | 30 | 1.55±1.01 % ID/G | 73 | 0.12±0.03 % ID/g | < 0.1 % ID/g | < 0.1 % ID/g | < 0.1 % ID/g | low | 0.878 mL/mL | 1.38 mL/mL | 9.0% | 4.0% | – |
| O=C(O)CCC(CP(=O)(O)O)C(=O)O (stereo not drawn) [PMPA, reference compound] | – | approximately sixfold | – | – | – | – | – | – | – | – | – | – | – | – | – | – | – | – | – | 37% |
